In patent USRE43135E1, “Method of improving dough and bread quality” (Danisco A/S, priority 2001, dated 2012):

Key:
[1] = enzyme expressed in a baculovirus system, Matos et al; cited from earlier work
[2] = Enzyme-catalysed degumming of vegetable oil; format: biochemical; conditions: rapeseed oil degumming; preliminary results
Method: Vegetable oil, in particular rapeseed oil, was treated with LAH isolated from cowpea to effect degumming of the oil. The process used was essentially as per the enzyme-catalysed degumming process of vegetable oil generally taught in Buchold, H. (Fat Sci. Technol. 95 Jahrgang nr. 8, 1993, pp300-305), excepting that LAH was used.

[3] = Model dough, free fatty acid in dough (cowpea LAH); format: biochemical, wheat
Method: (§1) 10 g of flour and 0.020 g sodium chloride were mixed in a 10 g Farinograph mixing bowl for 1 minute either with or without enzymes. Subsequently water (500 Brabender units) was added and mixed for 5 minutes at 30° C. After mixing the dough was placed at 32° C. for 1 hour, and then frozen and freeze dried prior to further analysis.
(§2) 10 g of fully proofed dough was immediately frozen and freeze dried. The freeze-dried dough was milled in a coffee mill and passed through an 800 micron screen. 1.5 g freeze-dried dough was scaled in a 15 ml centrifuge tube with screw top lid. 7.5 ml water saturated butanol (WSB) was added. The centrifuge tube was placed in a boiling water bath for 10 minutes. The tubes were placed in a Rotamix and rotated at 45 rpm for 20 minutes at ambient temperature and then placed in a boiling water bath again for a further 10 minutes prior to being Rotated on the Rotamix for a further 30 minutes at ambient temperature. The tubes were centrifuged at 3500 g for 5 minutes. 5 ml supernatant was transferred into a vial and the WSB was evaporated to dryness under a steam of nitrogen.
The free fatty acids in the extract were analysed as Cu-salts in isooctane measured at 715 nm and quantified according to a calibration curve based on oleic acid (Kwon D. Y. and Rhee J. S. (1986), A simple and rapid Colourimetric Method for
In the first series of dough experiments purified cowpea LAH was tested in 10 g dough in different concentrations in order to test the activity of the enzyme in dough and in order to find a suitable dosage for baking experiments. The activity of the enzyme was measured by analysing the level of free fatty acid in dough.

[4] = Minibread dough, free fatty acid analysis; format: biochemical, wheat
Method: as §2
The free fatty acids in the extract were analysed as Cu-salts in isooctane measured at 715 nm and quantified according to a calibration curve based on oleic acid (Kwon D. Y. and Rhee J. S. (1986), A simple and rapid Colourimetric Method for […]

[5] = Minibread dough, GLC analysis of non-polar dough lipids; format: biochemical, wheat
Method: as §2
(§3) Perkin Elmer 8420 Capillary Gas Chromatography equipped with WCOT fused silica column 12.5 m×0.25 mm ID×0.1 μm 5% phenyl-methyl-silicone (CP Sil 8 CB from Crompack). • Carrier: Helium. • Injection: 1.5 μl with split. • Detector: FID. 385° C.
(§4) Sample preparation: 50 mg wheat lipid was dissolved in 12 ml heptane: pyridine 2:1 containing an internal standard heptadecane, 2 mg/ml. 500 μl of the sample was transferred to a crimp vial. 100 μl MSTFA (N-Methyl-N-trimethylsilyltrifluoracetamid) was added and the reaction incubated for 15 minutes at 90° C. Calculation: Response factors for mono-di-triglycerides and free fatty acid were determined from reference mixtures of these components. Based on these response factors the mono-di-triglycerides and free fatty acids in wheat lipids were calculated.

[6] = Model dough, GLC analysis of non-polar lipids (cowpea LAH); format: biochemical, wheat; conditions: Example 1, FIG. 7, compared with activity on polar lipids and free fatty acid formation
Method: as §1, §3, §4
The non-polar lipids were analysed by GLC.

[7] = Minibread dough, HPLC analysis of galactolipids; format: biochemical, wheat
Method: as §2
(§5) Determination of Free Fatty Acids for Lipase Assay, JAOCS 63:89). Determination of Glycolipids and Phospholipids by HPLC.
(§6) The calibration curve for PC was used to calculate the amounts of the glycolipids and phospholipids.

[8] = Assay for enzyme activity with pNP-Caprate; format: biochemical; conditions: desalted/concentrated sample of purification step 5 (used for baking trials)
Method: Preparation of substrate for enzymatic assay: The substrate, pNP-Caprate (C10), was dissolved in ethanol and diluted in 100 mM Na-Phosphate-buffer (pH 6.3) to a final concentration of 0.1 mg,/ml substrate and 30% ethanol respectively, and kept at room temperature.
Assay method: The enzyme assay mixture contained 30 μl sample/blank and 250 μl substrate. The mixture was incubated at 35° C. for 30 minutes (420 nm) whilst simultaneously running an ELISA-reader (420 nm) kinetic program. The Vmax value was used for calculation of enzyme activity (U/ml). Vmax was converted to μmol from a standard curve for solutions of pNP measured under the same conditions as the sample. The enzyme activity is defined as the amount of enzyme which produce 1 μmol of pNP per min. at 35° C.

[9] = Model dough, HPLC analysis of polar lipids in dough (cowpea LAH); format: biochemical, wheat
Method: as §1, §2, §5, §6
Lipids extracted from the dough were further analysed by HPLC in order to study the effect on polar lipids in the dough.

[10] = Withers-Martinez et al; cited from earlier work
[11] = Cowpea LAH 0.0048 Units/kg flour
[12] = Cowpea LAH 0.024 Units/kg flour
[13] = Cowpea LAH % 0.1195, minibread dough
[14] = Cowpea LAH % 0.239, minibread dough
[15] = Cowpea LAH % 0.478, minibread dough
[16] = Cowpea LAH % 0.956, minibread dough
[17] = Test no. 2, Cowpea LAH 0.05 % in dough, fully proofed minibread dough
[18] = Test no. 3, Cowpea LAH 0.15 % in dough, fully proofed minibread dough
[19] = Test no. 3, Cowpea LAH 0.357 Units/kg flour, no DGDG added, minibread dough
[20] = Test no. 4, Cowpea LAH 0.357 Units/kg flour + DGDG 55% pure 0.2 %, minibread dough

43 KDa protein from drought-stressed cowpea: galactolipid acyl hydrolase of Matos et al, expressed in a baculovirus system; amino acid sequence SEQ ID No. 1
activity on triacylglycerol (triglyceride) [1]: no activity
galactolipid acyl hydrolase activity [1]: preferentially galactolipid acyl hydrolase activity
phospholipid activity [1]: some phospholipid activity

Cowpea LAH: lipolytic acyl hydrolase (E.C. 3.1.1.26) isolated from cowpea (Vigna unguiculata) leaves; hydrolyses glycolipid and phospholipid, not triglyceride
amounts of polar lipids in the oil [2]: reduce the amounts of polar lipids
triglyceride levels of the oil [2]: not significantly affecting
Fatty acid in dough [3, 11]: 1.66 ‰
Fatty acid in dough [3, 12]: 1.78 ‰
Fatty acid in dough ([3]; Cowpea LAH 0.12 Units/kg flour): 2.13 ‰
Fatty acid in dough ([3]; Cowpea LAH 0.6 Units/kg flour): 2.55 ‰
Fatty acid in dough ([3]; Cowpea LAH 3 Units/kg flour): 3.44 ‰
Free fatty acid in dough ([4]; Cowpea LAH 0.1195 Units/kg): 2.72 ‰
Free fatty acid in dough ([4]; Cowpea LAH 0.239 Units/kg): 2.81 ‰
Free fatty acid in dough ([4]; Cowpea LAH 0.478 Units/kg): 3.07 ‰
Free fatty acid in dough ([4]; Cowpea LAH 0.956 Units/kg): 3.28 ‰
Free fatty acid ([4]; Test no 3, Cowpea LAH 0.357 Units/kg flour, no DGDG): 3.07 ‰
Free fatty acid ([4]; Test no 4, Cowpea LAH 0.357 Units/kg flour + DGDG 55% pure 0.2 %): 3.00 ‰
Free fatty acid ([4]; Test no 10, Cowpea LAH 1.07 Units/kg flour, no DGDG): 3.32 ‰
Free fatty acid ([4]; Test no 11, Cowpea LAH 1.07 Units/kg flour + DGDG 55% pure 0.1 %): 3.42 ‰
Free fatty acid ([4]; Test no 12, Cowpea LAH 1.07 Units/kg flour + DGDG 55% pure 0.2 %): 3.64 ‰
Free fatty acid ([4]; Test no 13, Cowpea LAH 1.07 Units/kg flour + DGDG 55% pure 0.4 %): 3.92 ‰
Free fatty acid ([4]; Test no 15, Cowpea LAH 1.07 Units/kg flour + Soy oil 2 %): 3.35 ‰
Free fatty acid ([4]; Test no 16, Cowpea LAH 2.14 Units/kg flour + Soy oil 2 %): 3.75 ‰
Fatty acid in dough ([4]; Test no. 2, Cowpea LAH 0.05 % in dough): 2.75 ‰
Fatty acid in dough ([4]; Test no. 3, Cowpea LAH 0.15 % in dough): 2.96 ‰
Diglyceride [5, 13]: 0.96 ‰
Monoglyceride [5, 13]: 0.40 ‰
Triglyceride [5, 13]: 5.04 ‰
Diglyceride [5, 14]: 1.23 ‰
Monoglyceride [5, 14]: 0.41 ‰
Triglyceride [5, 14]: 5.21 ‰
Diglyceride [5, 15]: 0.90 ‰
Monoglyceride [5, 15]: 0.43 ‰
Triglyceride [5, 15]: 5.09 ‰
Diglyceride [5, 16]: 1.01 ‰
Monoglyceride [5, 16]: 0.41 ‰
Triglyceride [5, 16]: 5.23 ‰
Diglyceride [5, 17]: 0.95 ‰
Monoglyceride [5, 17]: 0.43 ‰
Triglyceride [5, 17]: 4.98 ‰
Diglyceride [5, 18]: 0.96 ‰
Monoglyceride [5, 18]: 0.43 ‰
Triglyceride [5, 18]: 5.11 ‰
Triglyceride [5, 19]: not detected
Triglyceride [5, 20]: 5.82 ‰
activity on triglyceride (GLC analysis) [6]: no activity
DGDG [7, 13]: 2.08 ‰
DGMG [7, 13]: 0.23 ‰
DGDG [7, 14]: 2.01 ‰
DGMG [7, 14]: 0.20 ‰
DGDG [7, 15]: 1.89 ‰
DGMG [7, 15]: 0.24 ‰
DGDG [7, 16]: 1.60 ‰
DGMG [7, 16]: 0.20 ‰
DGDG [7, 17]: 2.03 ‰
DGMG [7, 17]: 0.27 ‰
DGDG [7, 18]: 1.92 ‰
DGMG [7, 18]: 0.28 ‰
DGDG [7, 19]: 1.93 ‰
DGMG [7, 19]: 0.23 ‰
DGDG [7, 20]: 2.4 ‰
DGMG [7, 20]: 0.25 ‰
Vmax [8]: 5.6 mOD/min.
enzyme activity [8]: 0.010 U/ml
DGDG [9, 11]: 2.22 ‰
DGMG [9, 11]: 0.20 ‰
LPC [9, 11]: 1.50 ‰
PC [9, 11]: 0.52 ‰
DGDG [9, 12]: 2.12 ‰
DGMG [9, 12]: 0.23 ‰
LPC [9, 12]: 1.51 ‰
PC [9, 12]: 0.48 ‰
DGDG ([9]; Cowpea LAH 0.12 Units/kg flour): 1.84 ‰
DGMG ([9]; Cowpea LAH 0.12 Units/kg flour): 0.26 ‰
LPC ([9]; Cowpea LAH 0.12 Units/kg flour): 1.37 ‰
PC ([9]; Cowpea LAH 0.12 Units/kg flour): 0.35 ‰
DGDG ([9]; Cowpea LAH 0.6 Units/kg flour): 1.08 ‰
DGMG ([9]; Cowpea LAH 0.6 Units/kg flour): 0.30 ‰
LPC ([9]; Cowpea LAH 0.6 Units/kg flour): 1.30 ‰
PC ([9]; Cowpea LAH 0.6 Units/kg flour): 0.29 ‰
DGDG ([9]; Cowpea LAH 3.0 Units/kg flour): 0.30 ‰
DGMG ([9]; Cowpea LAH 3.0 Units/kg flour): 0.11 ‰
LPC ([9]; Cowpea LAH 3.0 Units/kg flour): 1.19 ‰
PC ([9]; Cowpea LAH 3.0 Units/kg flour): 0.00 ‰

B1: HPL: human pancreas lipase (protein, UniProt P16233 17-465, looked up)
Pancreatic triacylglycerol …: KEVCYERLGCFSDDSPWSGITERPLHILPWSPKDVNTRFLLYTNENPNNFQEVAADSSSISGSNFKTNRKTRFIIHGFIDKGEENWLANVCKNLFKVESVNCICVDWKGGSRTGYTQASQNIRIVGAEVAYFVEFLQSAFGYSPSNVHVIGHSLGAHAAGEAGRRTNGTIGRITGLDPAEPCFQGTPELVRLDPSDAKFVDVIHTDGAPIVPNLGFGMSQVVGHLDFFPNGGVEMPGCKKNILSQIVDIDGIWEGTRDFAACNHLRSYKYYTDSIVNPDGFAGFPCASYNVFTANKCFPCPSGGCPQMGHYADRYPGKTNDVGQKFYLDTGDASNFARWRYKVSVTLSGKKVTGHILVSLFGNKGNSKQYEIFKGTLKPDSTHSNEFDSDVDVGDLQMVKFIWYNNVINPTLPRVGASKIIVETNVGKQFNFCSPETVREEVLLTLTPC
activity on triglyceride [10]: only activity on triglyceride

B2: GPLRP2: guinea pig pancreatic lipase-related protein 2 (protein, UniProt P81139 1-434, looked up)
Pancreatic lipase-related …: AEVCYSHLGCFSDEKPWAGTSQRPIKSLPSDPKKINTRFLLYTNENQNSYQLITATDIATIKASNFNLNRKTRFIIHGFTDSGENSWLSDMCKNMFQVEKVNCICVDWKGGSKAQYSQASQNIRVVGAEVAYLVQVLSTSLNYAPENVHIIGHSLGAHTAGEAGKRLNGLVGRITGLDPAEPYFQDTPEEVRLDPSDAKFVDVIHTDISPILPSLGFGMSQKVGHMDFFPNGGKDMPGCKTGISCNHHRSIEYYHSSILNPEGFLGYPCASYDEFQESGCFPCPAKGCPKMGHFADQYPGKTNAVEQTFFLNTGASDNFTRWRYKVTVTLSGEKDPSGNINVALLGKNGNSAQYQVFKGTLKPDASYTNSIDVELNVGTIQKVTFLWKRSGISVSKPKMGASRITVQSGKDGTKYNFCSSDIVQENVEQTLSPC
activity on galactolipids and phospholipids [10]: has activity on galactolipids and phospholipids
activity on triglyceride [10]: reduced activity
